Legend:
[1] = tested on: Sinapis alba, Chrysanthemum segetum, Avena sativa, Stellaria media, Alopecurus myosuroides and Lolium multiflorum; test: Herbicidal action, pre-emergence (greenhouse pot test); format: in vivo; conditions: applied pre-emergence, 0.3 kg and less of active substance per hectare; rated visually after 3 to 4 weeks vs untreated controls
Description: Seeds or pieces or rhizome of mono- and dicotyledon weed plants were laid out in sandy loam soil in plastic pots and covered with soil. The compounds according to the invention, formulated in the form of wettable powders or emulsion concentrates, were then applied to the surface of the covering soil as an aqueous suspension or emulsion in various dosages, with an amount of water applied, when converted, of 600 to 800 l/ha.
After the treatment, the pots were placed in a greenhouse and kept under good growth conditions for the weeds. The plant damage or emergence damage was rated visually after emergence of the test plants after a test period of 3 to 4 weeks in comparison with untreated controls.

[2] = tested on: Sinapis alba, Stellaria media, Alopecurus myosuroides and Lolium multiflorum, Chrysanthemum segetum and Avena sativa; test: Herbicidal action, post-emergence (greenhouse pot test); format: in vivo; conditions: applied postemergence in three-leaf stage, 0.3 kg or less of active substance per hectare; rated visually after about 3 to 4 weeks vs untreated controls
Procedure: Seeds or pieces of rhizome of mono- and dicotyledon weeds were laid out in sandy loam soil in plastic pots, covered with soil and grown in a greenhouse under good growth conditions. Three weeks after sowing, the test plants were treated in the three-leaf stage.
The compounds according to the invention, formulated as wettable powders or as emulsion concentrates, were sprayed onto the green parts of plants in various dosages with an amount of water applied of, when converted, 600 to 800 l/ha, and after the test plants had stood in a greenhouse for about 3 to 4 weeks under optimum growth conditions, the action of the preparations was rated visually in comparison with untreated controls. The compositions according to the invention also show a good herbicidal activity against a broad spectrum of economically important graminaceous weeds and broad-leafed weeds when applied post-emergence.

SMILES	herbicidal action, pre-emergence [1]	herbicidal action, post-emergence [2]	melting point
COC(=O)Nc1ccc(C(=O)N(C)C)c(S(=O)(=O)[N-]C(=O)Nc2nc(Cl)cc(OC)n2)c1.[Na+] [22 from Table 2]	very good herbicidal action	–	–
COc1cc(OC)nc(NC(=O)NS(=O)(=O)c2cc(NS(C)(=O)=O)ccc2C(=O)N(C)C)n1 [77 from Table 1]	very good herbicidal action	very good herbicidal action	–
COc1cc(OC)nc(NC(=O)NS(=O)(=O)c2cc(NC(=O)OCCCl)ccc2C(=O)N(C)C)n1 [65 from Table 1]	very good herbicidal action	very good herbicidal action	–
CCNC(=O)Nc1ccc(C(=O)N(C)C)c(S(=O)(=O)NC(=O)Nc2nc(OC)cc(OC)n2)c1 [72 from Table 1]	very good herbicidal action	very good herbicidal action	–
COc1cc(OC)nc(NC(=O)NS(=O)(=O)c2cc(NC(=O)C3CC3)ccc2C(=O)N(C)C)n1 [115 from Table 1]	very good herbicidal action	very good herbicidal action	–
COC(=O)Nc1ccc(C(=O)N(C)C)c(S(=O)(=O)[N-]C(=O)Nc2nc(Cl)cc(OC)n2)c1.[Na+] [Example 22 from Table 2]	–	very good herbicidal action	–
CCC(=O)Nc1ccc(C(=O)N(C)C)c(S(=O)(=O)NC(=O)Nc2nc(OC)cc(OC)n2)c1	–	–	135 to 140 °C (dec.)
COC(=O)Nc1ccc(C(=O)N(C)C)c(S(=O)(=O)[N-]C(=O)Nc2nc(C)nc(OC)n2)c1.[Na+] [20 from Table 2]	very good herbicidal action	–	–
CCOC(=O)Nc1ccc(C(=O)N(C)C)c(S(=O)(=O)[N-]C(=O)Nc2nc(OC)cc(OC)n2)c1.[Na+] [26 from Table 2]	very good herbicidal action	–	–
CCC(=O)Nc1ccc(C(=O)N(C)C)c(S(=O)(=O)NC(=O)Nc2nc(OC)cc(OC)n2)c1 [22 from Table 1]	very good herbicidal action	very good herbicidal action	–
COC(=O)Nc1ccc(C(=O)N(C)C)c(S(=O)(=O)[N-]C(=O)Nc2nc(OC)cc(OC)n2)c1.[Na+] [21 from Table 2]	very good herbicidal action	–	–
COc1nc(NC(=O)NS(=O)(=O)c2cc(NC(=O)C(F)(F)F)ccc2C(=O)N(C)C)nc(OC)n1 [44 from Table 1]	very good herbicidal action	very good herbicidal action	–
COc1cc(OC)nc(NC(=O)[N-]S(=O)(=O)c2cc(NC(=O)C(F)(F)F)ccc2C(=O)N(C)C)n1.[Na+] [17 from Table 2]	very good herbicidal action	–	–
COC(=O)Nc1ccc(C(=O)N(C)C)c(S(=O)(=O)NC(=O)Nc2nc(Cl)cc(OC)n2)c1 [55 from Table 1]	very good herbicidal action	very good herbicidal action	–
CCN(C)C(=O)c1ccc(NC=O)cc1S(=O)(=O)NC(=O)Nc1nc(OC)cc(OC)n1 [116 from Table 1]	very good herbicidal action	very good herbicidal action	–
COc1cc(C)nc(NC(=O)NS(=O)(=O)c2cc(NC(=O)C(F)(F)F)ccc2C(=O)N(C)C)n1 [40 from Table 1]	very good herbicidal action	very good herbicidal action	–
COc1cc(OC)nc(NC(=O)NS(=O)(=O)c2cc(NC(=O)C(C)C)ccc2C(=O)N(C)C)n1 [25 from Table 1]	very good herbicidal action	very good herbicidal action	–
COc1cc(OC)nc(NC(=O)[N-]S(=O)(=O)c2cc(NC(=O)C(F)(F)F)ccc2C(=O)N(C)C)n1.[Na+] [Example 17 from Table 2]	–	very good herbicidal action	–

SMILES	herbicidal action, pre-emergence [1]	herbicidal action, post-emergence [2]	melting point
COc1cc(OC)nc(NC(=O)NS(=O)(=O)c2cc(NC=O)ccc2C(=O)N(C)C)n1.[Na] [Example 1 from Table 2, N-[(4,6-dimethoxypyrimidin-2-yl)-aminocarbonyl]-2-dimethylaminocarbonyl-5-formylamino-benzenesulfonamide sodium salt]	–	very good herbicidal action	–
COc1cc(OC)nc(NC(=O)[N-]S(=O)(=O)c2cc(NC(=O)C(C)C)ccc2C(=O)N(C)C)n1.[Na+] [16 from Table 2]	very good herbicidal action	–	–
COc1cc(OC)nc(NC(=O)NS(=O)(=O)c2cc(NC(C)=O)ccc2C(=O)N(C)C)n1 [15 from Table 1]	very good herbicidal action	very good herbicidal action	–
COC(=O)Nc1ccc(C(=O)N(C)C)c(S(=O)(=O)[N-]C(=O)Nc2nc(C)nc(OC)n2)c1.[Na+] [Example 20 from Table 2]	–	very good herbicidal action	–
COc1cc(OC)nc(NC(=O)[N-]S(=O)(=O)c2cc(NC(C)=O)ccc2C(=O)N(C)C)n1.[Na+] [7 from Table 2]	very good herbicidal action	–	–
COc1cc(OC)nc(NC(=O)NS(=O)(=O)c2cc(NC=O)ccc2C(=O)N(C)C)n1 [8 from Table 1]	very good herbicidal action	very good herbicidal action	–
COc1cc(OC)nc(NC(=O)[N-]S(=O)(=O)c2cc(NC(C)=O)ccc2C(=O)N(C)C)n1.[Na+] [Example 7 from Table 2]	–	very good herbicidal action	–
CCC(=O)Nc1ccc(C(=O)N(C)C)c(S(=O)(=O)NC(=O)Nc2nc(OC)cc(OC)n2)c1.[Na] [Example 12 from Table 2, N-[(4,6-dimethoxypyrimidin-2-yl)-aminocarbonyl]-2-dimethylaminocarbonyl-5-propionylamino-benzenesulfonamide sodium salt]	–	very good herbicidal action	212 °C (dec.)
COC(=O)Nc1ccc(C(=O)N(C)C)c(S(=O)(=O)NC(=O)Nc2nc(OC)cc(OC)n2)c1.[Na] [Example 21 from Table 2, N-[(4,6-dimethoxypyrimidin-2-yl)-aminocarbonyl]-2-dimethylaminocarbonyl-5-methoxycarbonylamino-benzenesulfonamide sodium salt]	–	very good herbicidal action	187 to 191 °C (dec.)
COc1cc(OC)nc(NC(=O)NS(=O)(=O)c2cc(NC(=O)C(C)(C)C)ccc2C(=O)N(C)C)n1 [30 from Table 1]	very good herbicidal action	very good herbicidal action	–
COC(=O)Nc1ccc(C(=O)N(C)C)c(S(=O)(=O)NC(=O)Nc2nc(C)nc(OC)n2)c1 [58 from Table 1]	very good herbicidal action	very good herbicidal action	–
CNS(=O)(=O)Nc1ccc(C(=O)N(C)C)c(S(=O)(=O)NC(=O)Nc2nc(OC)cc(OC)n2)c1 [87 from Table 1]	very good herbicidal action	very good herbicidal action	–
COc1cc(OC)nc(NC(=O)[N-]S(=O)(=O)c2cc(NC(=O)C(C)C)ccc2C(=O)N(C)C)n1.[Na+] [Example 16 from Table 2]	–	very good herbicidal action	–
CCOC(=O)Nc1ccc(C(=O)N(C)C)c(S(=O)(=O)[N-]C(=O)Nc2nc(OC)cc(OC)n2)c1.[Na+] [Example 26 from Table 2]	–	very good herbicidal action	–
CCOC(=O)Nc1ccc(C(=O)N(C)C)c(S(=O)(=O)NC(=O)Nc2nc(OC)cc(OC)n2)c1 [59 from Table 1]	very good herbicidal action	very good herbicidal action	–
COC(=O)Nc1ccc(C(=O)N(C)C)c(S(=O)(=O)NC(=O)Nc2nc(OC)cc(OC)n2)c1 [53 from Table 1]	very good herbicidal action	very good herbicidal action	–
COc1cc(OC)nc(NC(=O)[N-]S(=O)(=O)c2cc(NC=O)ccc2C(=O)N(C)C)n1.[Na+] [1 from Table 2]	very good herbicidal action	–	–

Source: patent US6498253B1, “Acylated aminophenylsulfonylureas, processes for their preparation and their use as herbicides and plant growth regulators” (priority 1994, dated 2002)
